According to patent US20140348819A1, “Methods of Treating Cancer” (Dana-Farber Cancer Institute, Inc., priority 2011, published 2014):

Experiments:
[1] = system: six V600E BRAF melanoma cell lines; assay: Screening of recombinant RTK ligands for ability to confer resistance to BRAFi (PLX4720) or MEKi (PD184352) (Table 4); assay type: cell-based, human; parameters: ability of recombinant RTK ligand to confer resistance / ability of recombinant RTK ligand to confer resistance (screening value): scale not given here
Method in brief: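 Resistance to BRAFi (PLX4720) or MEKi (PD184352) was tested in six V600E BRAF melanoma lines given one of 22 recombinant RTK ligands. For a subset of RTKs, activation was checked by high-throughput tyrosine kinase phosphorylation profiling and western blot.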

[2] = system: pERK/pAKT; assay: High-throughput western analysis of pERK/pAKT re-activation by RTK ligands under BRAFi/MEKi; assay type: cell-based, human; conditions: under BRAFi (PLX4720); after 1 hour of cytokine treatment; six V600E BRAF melanoma cell lines
Method: FIG. 23B is a western blot showing the activation of AKT (phosphorylated AKT, S473) after 1 hour and 24 hours after treatment with HGF, IGF-1 (IGF), and Insulin (INS) in the presence of BRAFi (PLX4720, 2 μM). FIG. 23C is a western blot showing the effect of HGF (25 ng/mL) on MAPK and PI3K/AKT pathway activation (pRAF1, pMEK, pERK, pAKT and pMET) in melanoma cell lines after 24 hours of treatment with 2 μM BRAFi (PLX4720) or 2 μM MEKi (PD184352).
To understand why, of all the RTKs tested, only HGF could induce such a unique primary resistance phenotype, a high-throughput western analysis was used to test the ability of all 22 RTK ligands to re-activate pERK/pAKT under BRAFi (PLX4720) treatment in six V600E BRAF melanoma cell lines. […] However, whereas the activation of both ERK and AKT by HGF under PLX4720 treatment was long lasting, the activation of either ERK or AKT by the above cytokines was only transient and thus could not confer resistance to the melanoma cell lines.

## insulin: RTK ligand (INSR), cytokine tested
[1]; A2058, PD184352 - 1 uM, ligand 156.25 ng/ml
  ability of recombinant RTK ligand to confer resistance: 0.98
[1]; A2058, PD184352 - 1 uM, ligand 625 ng/ml
  ability of recombinant RTK ligand to confer resistance: 0.99
[1]; A2058, PD184352 - 1 uM, ligand 2500 ng/ml
  ability of recombinant RTK ligand to confer resistance: 1.14
[1]; A2058, PD184352 - 1 uM, ligand 10000 ng/ml
  ability of recombinant RTK ligand to confer resistance: 1.03
[1]; A2058, PD184352 - 1 uM, ligand 40000 ng/ml
  ability of recombinant RTK ligand to confer resistance: 1.06
[1]; A2058, PLX4720 - 2 uM, ligand 156.25 ng/ml
  ability of recombinant RTK ligand to confer resistance: 0.98
[1]; A2058, PLX4720 - 2 uM, ligand 625 ng/ml
  ability of recombinant RTK ligand to confer resistance: 0.96
[1]; A2058, PLX4720 - 2 uM, ligand 2500 ng/ml
  ability of recombinant RTK ligand to confer resistance: 1.12
[1]; A2058, PLX4720 - 2 uM, ligand 10000 ng/ml
  ability of recombinant RTK ligand to confer resistance: 1.02
[1]; A2058, PLX4720 - 2 uM, ligand 40000 ng/ml
  ability of recombinant RTK ligand to confer resistance: 1.11
[1]; C32, PD184352 - 1 uM, ligand 156.25 ng/ml
  ability of recombinant RTK ligand to confer resistance: 1.09
[1]; C32, PD184352 - 1 uM, ligand 625 ng/ml
  ability of recombinant RTK ligand to confer resistance: 1.08
[1]; C32, PD184352 - 1 uM, ligand 2500 ng/ml
  ability of recombinant RTK ligand to confer resistance: 1.20
[1]; C32, PD184352 - 1 uM, ligand 10000 ng/ml
  ability of recombinant RTK ligand to confer resistance: 1.08
[1]; C32, PD184352 - 1 uM, ligand 40000 ng/ml
  ability of recombinant RTK ligand to confer resistance: 1.04
[1]; C32, PLX4720 - 2 uM, ligand 156.25 ng/ml
  ability of recombinant RTK ligand to confer resistance: 1.14
[1]; C32, PLX4720 - 2 uM, ligand 625 ng/ml
  ability of recombinant RTK ligand to confer resistance: 1.05
[1]; C32, PLX4720 - 2 uM, ligand 2500 ng/ml
  ability of recombinant RTK ligand to confer resistance: 1.20
[1]; C32, PLX4720 - 2 uM, ligand 10000 ng/ml
  ability of recombinant RTK ligand to confer resistance: 1.02
[1]; C32, PLX4720 - 2 uM, ligand 40000 ng/ml
  ability of recombinant RTK ligand to confer resistance: 1.04
[1]; Colo 829, PD184352 - 1 uM, ligand 156.25 ng/ml
  ability of recombinant RTK ligand to confer resistance: 0.91
[1]; Colo 829, PD184352 - 1 uM, ligand 625 ng/ml
  ability of recombinant RTK ligand to confer resistance: 0.98
[1]; Colo 829, PD184352 - 1 uM, ligand 2500 ng/ml
  ability of recombinant RTK ligand to confer resistance: 0.98
[1]; Colo 829, PD184352 - 1 uM, ligand 10000 ng/ml
  ability of recombinant RTK ligand to confer resistance: 1.02
[1]; Colo 829, PD184352 - 1 uM, ligand 40000 ng/ml
  ability of recombinant RTK ligand to confer resistance: 1.02
[1]; Colo 829, PLX4720 - 2 uM, ligand 156.25 ng/ml
  ability of recombinant RTK ligand to confer resistance: 0.91
[1]; Colo 829, PLX4720 - 2 uM, ligand 625 ng/ml
  ability of recombinant RTK ligand to confer resistance: 0.93
[1]; Colo 829, PLX4720 - 2 uM, ligand 2500 ng/ml
  ability of recombinant RTK ligand to confer resistance: 0.97
[1]; Colo 829, PLX4720 - 2 uM, ligand 10000 ng/ml
  ability of recombinant RTK ligand to confer resistance: 1.01
[1]; Colo 829, PLX4720 - 2 uM, ligand 40000 ng/ml
  ability of recombinant RTK ligand to confer resistance: 1.00
[1]; G-361, PD184352 - 1 uM, ligand 156.25 ng/ml
  ability of recombinant RTK ligand to confer resistance: 0.98
[1]; G-361, PD184352 - 1 uM, ligand 625 ng/ml
  ability of recombinant RTK ligand to confer resistance: 0.91
[1]; G-361, PD184352 - 1 uM, ligand 2500 ng/ml
  ability of recombinant RTK ligand to confer resistance: 1.01
[1]; G-361, PD184352 - 1 uM, ligand 10000 ng/ml
  ability of recombinant RTK ligand to confer resistance: 0.98
[1]; G-361, PD184352 - 1 uM, ligand 40000 ng/ml
  ability of recombinant RTK ligand to confer resistance: 0.97
[1]; G-361, PLX4720 - 2 uM, ligand 156.25 ng/ml
  ability of recombinant RTK ligand to confer resistance: 0.92
[1]; G-361, PLX4720 - 2 uM, ligand 625 ng/ml
  ability of recombinant RTK ligand to confer resistance: 0.88
[1]; G-361, PLX4720 - 2 uM, ligand 2500 ng/ml
  ability of recombinant RTK ligand to confer resistance: 0.98
[1]; G-361, PLX4720 - 2 uM, ligand 10000 ng/ml
  ability of recombinant RTK ligand to confer resistance: 0.96
[1]; G-361, PLX4720 - 2 uM, ligand 40000 ng/ml
  ability of recombinant RTK ligand to confer resistance: 0.99
[1]; SK-MEL-5, PD184352 - 1 uM, ligand 156.25 ng/ml
  ability of recombinant RTK ligand to confer resistance: 1.20
[1]; SK-MEL-5, PD184352 - 1 uM, ligand 625 ng/ml
  ability of recombinant RTK ligand to confer resistance: 1.24
[1]; SK-MEL-5, PD184352 - 1 uM, ligand 2500 ng/ml
  ability of recombinant RTK ligand to confer resistance: 1.30
[1]; SK-MEL-5, PD184352 - 1 uM, ligand 10000 ng/ml
  ability of recombinant RTK ligand to confer resistance: 1.28
[1]; SK-MEL-5, PD184352 - 1 uM, ligand 40000 ng/ml
  ability of recombinant RTK ligand to confer resistance: 1.66
[1]; SK-MEL-5, PLX4720 - 2 uM, ligand 156.25 ng/ml
  ability of recombinant RTK ligand to confer resistance: 1.10
[1]; SK-MEL-5, PLX4720 - 2 uM, ligand 625 ng/ml
  ability of recombinant RTK ligand to confer resistance: 1.18
[1]; SK-MEL-5, PLX4720 - 2 uM, ligand 2500 ng/ml
  ability of recombinant RTK ligand to confer resistance: 1.27
[1]; SK-MEL-5, PLX4720 - 2 uM, ligand 10000 ng/ml
  ability of recombinant RTK ligand to confer resistance: 1.26
[1]; SK-MEL-5, PLX4720 - 2 uM, ligand 40000 ng/ml
  ability of recombinant RTK ligand to confer resistance: 1.43
[1]; SK-MEL-28, PD184352 - 1 uM, ligand 156.25 ng/ml
  ability of recombinant RTK ligand to confer resistance: 1.01
[1]; SK-MEL-28, PD184352 - 1 uM, ligand 625 ng/ml
  ability of recombinant RTK ligand to confer resistance: 0.97
[1]; SK-MEL-28, PD184352 - 1 uM, ligand 2500 ng/ml
  ability of recombinant RTK ligand to confer resistance: 1.06
[1]; SK-MEL-28, PD184352 - 1 uM, ligand 10000 ng/ml
  ability of recombinant RTK ligand to confer resistance: 1.13
[1]; SK-MEL-28, PD184352 - 1 uM, ligand 40000 ng/ml
  ability of recombinant RTK ligand to confer resistance: 1.11
[1]; SK-MEL-28, PLX4720 - 2 uM, ligand 156.25 ng/ml
  ability of recombinant RTK ligand to confer resistance: 1.02
[1]; SK-MEL-28, PLX4720 - 2 uM, ligand 625 ng/ml
  ability of recombinant RTK ligand to confer resistance: 0.95
[1]; SK-MEL-28, PLX4720 - 2 uM, ligand 2500 ng/ml
  ability of recombinant RTK ligand to confer resistance: 0.99
[1]; SK-MEL-28, PLX4720 - 2 uM, ligand 10000 ng/ml
  ability of recombinant RTK ligand to confer resistance: 1.05
[1]; SK-MEL-28, PLX4720 - 2 uM, ligand 40000 ng/ml
  ability of recombinant RTK ligand to confer resistance: 1.05
[2]
  re-activation of pERK/pAKT: only reactivate AKT
